Literature values as cited in US9738620B2, “Trientine prodrugs, pharmaceutical compositions thereof, and methods of use” (priority 2015, dated 2017).

Conditions: Lu., Molecular Cancer Therapeutics. 2010, 9 (9), 2458-67

oral bioavailability: 8-30%
Compound: NCCNCCNCCN [Trientine]
